Assays:
Experiment in all cases: relative viability (nuclei count vs DMSO), 5 days (fraction); higher = more cells survive
[1] = compound: C1=CC2=NC=CN=C2C=C1/C=C/3\C(=O)NC(=O)S3 + Nc1nc2[nH]cc(CCc3ccc(C(=O)N[C@@H](CCC(=O)O)C(=O)O)cc3)c2c(=O)[nH]1 [Pemetrexed] (partner 0.2 µM)
How it was run: (§1)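 Relative viability divides the nuclei count in treated wells by that in vehicle wells. Lung cancer cell lines were seeded in 1536-well plates, dosed by pin tool the next day, and fixed and stained after 5 days in one step with final 0.05% Triton X-100, 1% formaldehyde and 1 ug/ml Hoechst. Dosing was a single drug or a fixed anchor-drug dose plus five library-drug doses (not always all listed) in √10 steps, and values are medians of duplicate plates imaged at 4×.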

BGJ398 + Trametinib = compound: CCN1CCN(c2ccc(Nc3cc(N(C)C(=O)Nc4c(Cl)c(OC)cc(OC)c4Cl)ncn3)cc2)CC1 [BGJ398] + CC(=O)Nc1cccc(-n2c(=O)n(C3CC3)c(=O)c3c(Nc4ccc(I)cc4F)n(C)c(=O)c(C)c32)c1 [Trametinib] (partner 0.02 µM)
How it was run: as §1

BGJ398 + Foretinib = compound: CCN1CCN(c2ccc(Nc3cc(N(C)C(=O)Nc4c(Cl)c(OC)cc(OC)c4Cl)ncn3)cc2)CC1 [BGJ398] + COc1cc2c(Oc3ccc(NC(=O)C4(C(=O)Nc5ccc(F)cc5)CC4)cc3F)ccnc2cc1OCCCN1CCOCC1 [Foretinib] (partner 0.25 µM)
How it was run: as §1

BGJ398 + Pemetrexed = compound: CCN1CCN(c2ccc(Nc3cc(N(C)C(=O)Nc4c(Cl)c(OC)cc(OC)c4Cl)ncn3)cc2)CC1 [BGJ398] + Nc1nc2[nH]cc(CCc3ccc(C(=O)N[C@@H](CCC(=O)O)C(=O)O)cc3)c2c(=O)[nH]1 [Pemetrexed] (partner 0.2 µM)
How it was run: as §1

Row | Cell Line | relative viability ([1]; first compound 0.02 µM) | relative viability ([1]; first compound 0.06325 µM) | relative viability ([1]; first compound 0.2 µM) | relative viability ([1]; first compound 0.6325 µM) | relative viability ([1]; first compound 2 µM) | relative viability (BGJ398 + Trametinib; first compound 0.01 µM) | relative viability (BGJ398 + Trametinib; first compound 0.03162 µM) | relative viability (BGJ398 + Trametinib; first compound 0.1 µM) | relative viability (BGJ398 + Trametinib; first compound 0.3162 µM) | relative viability (BGJ398 + Trametinib; first compound 1 µM) | relative viability (BGJ398 + Foretinib; first compound 0.01 µM) | relative viability (BGJ398 + Foretinib; first compound 0.03162 µM) | relative viability (BGJ398 + Foretinib; first compound 0.1 µM) | relative viability (BGJ398 + Foretinib; first compound 0.3162 µM) | relative viability (BGJ398 + Foretinib; first compound 1 µM) | relative viability (BGJ398 + Pemetrexed; first compound 0.01 µM) | relative viability (BGJ398 + Pemetrexed; first compound 0.03162 µM) | relative viability (BGJ398 + Pemetrexed; first compound 0.1 µM) | relative viability (BGJ398 + Pemetrexed; first compound 0.3162 µM) | relative viability (BGJ398 + Pemetrexed; first compound 1 µM)
1 | NCI-H520 | 0.684 | 0.726 | 0.71 | 0.783 | 0.711 | 0.586 | 0.548 | 0.351 | 0.189 | 0.205 | 0.777 | 0.7 | 0.316 | 0.25 | 0.236 | 0.691 | 0.532 | 0.531 | 0.341 | 0.311
2 | NCI-H460 | 0.0621 | 0.0629 | 0.071 | 0.058 | 0.0661 | 0.0671 | 0.131 | 0.209 | 0.13 | 0.0628 | 0.999 | 0.994 | 1.08 | 1.06 | 1.04 | 0.0621 | 0.0761 | 0.0595 | 0.0608 | 0.0687
3 | EKVX | 0.337 | 0.356 | 0.363 | 0.438 | 0.364 | 0.326 | 0.336 | 0.368 | 0.261 | 0.359 | 0.763 | 0.409 | 0.805 | 0.643 | 0.686 | 0.385 | 0.403 | 0.452 | 0.38 | 0.378
4 | NCI-H358 | 0.166 | 0.18 | 0.177 | 0.186 | 0.181 | 0.137 | 0.127 | 0.134 | 0.126 | 0.148 | 0.61 | 0.725 | 0.682 | 0.718 | 0.951 | 0.173 | 0.167 | 0.199 | 0.17 | 0.188
5 | EPLC-272H | 0.351 | 0.266 | 0.43 | 0.353 | 0.318 | 0.302 | 0.345 | 0.282 | 0.194 | 0.198 | 0.794 | 0.534 | 0.84 | 0.724 | 0.74 | 0.32 | 0.447 | 0.317 | 0.289 | 0.418
6 | NCI-H1395 | 0.965 | 0.779 | 0.975 | 0.867 | 0.732 | 0.986 | 0.963 | 0.666 | 0.555 | 0.587 | 0.877 | 0.955 | 0.819 | 0.756 | 0.614 | 0.827 | 0.82 | 0.77 | 0.559 | 0.524
7 | NCI-H2126 | 0.65 | 0.772 | 0.684 | 0.713 | 0.463 | 0.609 | 0.531 | 0.615 | 0.629 | 0.567 | 1.19 | 1.28 | 1.26 | 1.2 | 1.12 | 0.724 | 0.717 | 0.689 | 0.674 | 0.684
8 | LXF-289 | 0.841 | 0.823 | 0.789 | 0.908 | 0.899 | 0.567 | 0.649 | 0.672 | 0.563 | 0.593 | 0.901 | 0.901 | 0.881 | 0.873 | 0.871 | 0.923 | 0.849 | 0.88 | 0.801 | 0.923

Reference: the supplement of paper PMC10307832
